Laboratory results from US11572362B2, “Pyrrolo[1,2-b]pyridazine derivatives” (Gilead Sciences, Inc., priority 2018, dated 2023).

Assays:
IRAK4 = IRAK4 (Homo sapiens (Human), UniProt Q9NWZ3); experiment: IRAK4 Biochemical Assay (TR-FRET/HTRF); conditions: IRAK4 enzyme 0.75 nM, 500 μM ATP, 2 μM STK1 peptide, 120 min
Procedure: IRAK4 Biochemical Assay Procedure:
IRAK4 enzyme (Carna Biosciences, Chuo-ku, Kobe, Japan) activity was measured by detecting phosphorylated peptide substrate formation using an antibody against the phosphorylated peptide substrate. This is a time-resolved fluorescence resonance energy transfer (TR-FRET) immunoassay, based on the STK1 KinEASE Assay (Cisbio, Bedford, Mass.). The assay was designed as a simple two-step, endpoint assay (a 5 μl enzyme reaction followed by 5 μl stop and detect Solution) performed in ProxiPlate-384 Plus plates (Perkin Elmer, Waltham, Mass.). Staurosporine, a non-selective kinase inhibitor was used as a positive control. Compounds diluted in DMSO were spotted into 384 well plates using a Labcyte® Echo 550 Liquid Handling System prior to addition of IRAK4 enzyme and peptide substrate. Reaction solutions were delivered using a Multi-Flo (Bio-Tek Instruments). The enzyme and peptide solution was incubated with compound for 15 minutes at room temp before the reaction was initiated by the addition of ATP. The standard 5 μl reaction mixture contained 500 μM ATP, 2 μM peptide (STK1 Peptide), 0.75 nM of IRAK4 in reaction buffer (50 mM HEPES, pH 7.0, 0.02% NaN3, 0.01% BSA, 0.1 mM Orthovanadate, 5 mM MgCl2, 0.025% NP-40, 1 mM DTT). After 120 min of incubation at room temperature, 5 μl of Stop and Detect Solution (1:100 Cryptate labeled anti-phosphorylated peptide antibody solution and 125 nM Tracer in a 50 mM HEPES pH 7.0 detection buffer containing sufficient EDTA) was added. The plate was then further incubated for 60 minutes at room temperature and read on Envision 2103 Multilabeled reader (PerkinElmer) with excitation/emission/FRET emission at 340 nm/615 nm/665 nm, respectively. Fluorescence intensities at 615 nm and 665 nm emission wavelengths were expressed as a ratio (665 nm/615 nm). Percentage of inhibition was calculated as below: % Inhibition=100×(RatioSample−Ratio0% Inhibition)/(Ratio100% Inhibition−Ratio0% Inhibition)
The 0% inhibition value comes from control wells lacking inhibitor. The 100% inhibition value comes from control wells containing a saturating amount of known inhibitor staurosporine.

TNFα = experiment: IRAK4 Monocyte TNFα Cell Based Assay; conditions: Monocyte; cryopreserved human monocytes, 50 pg/ml LPS, compound 1 hour pre-treatment, 4 hours stimulation, TNFα by TR-FRET
Procedure: IRAK4 Monocyte TNFα Cell Based Assay Procedure:
The cell suspension was then plated at a density of 5,000 cells/well onto black 384 well Greiner clear bottom plates. Plates were pre-spotted with test compounds and serially diluted in DMSO where 40 nL/well were delivered using the Echo 550 acoustic liquid dispenser (Labcyte®) for a final DMSO concentration of 0.1%. Plated cells were treated with compound for 1 hour at 37° C. Cells were then stimulated with 50 pg/ml of LPS (Sigma) excluding outside columns of plate used for unstimulated cell control wells. Cells were incubated for an additional 4 hours at 37° C. Cells were then spun out of the media and 5 μl of sample were taken and analyzed for total TNFα content using the TR-FRET Human TNFα detection system (CisBio). This system utilizes two labeled antibodies (cryptate and XL665) that bind to two different epitopes of the TNFα molecule and produce FRET signal proportional to the concentration of TNFα in the sample. Detection antibodies are mixed 50:50 and 5 μL were dispensed into each well. Plates were covered with clear seals and incubated at room temp overnight. The following morning plates were read using an Envision 2103 Multilabeled reader (PerkinElmer) with excitation/emission/FRET emission at 340 nm/615 nm/665 nm, respectively. Fluorescence intensities at 615 nm and 665 nm emission wavelengths were expressed as a ratio (665 nm/615 nm). Percent of control was calculated as follows: % Control=100×(RatioSample−Ratio0% Stimulation)/(Ratio100% Stimulation−Ratio0% Stimulation)
where unstimulated cells (0% stimulation) were the negative control and stimulated cells (100% stimulation) were used as the positive control.

Sequence of IRAK4 (Q9NWZ3 whole entry): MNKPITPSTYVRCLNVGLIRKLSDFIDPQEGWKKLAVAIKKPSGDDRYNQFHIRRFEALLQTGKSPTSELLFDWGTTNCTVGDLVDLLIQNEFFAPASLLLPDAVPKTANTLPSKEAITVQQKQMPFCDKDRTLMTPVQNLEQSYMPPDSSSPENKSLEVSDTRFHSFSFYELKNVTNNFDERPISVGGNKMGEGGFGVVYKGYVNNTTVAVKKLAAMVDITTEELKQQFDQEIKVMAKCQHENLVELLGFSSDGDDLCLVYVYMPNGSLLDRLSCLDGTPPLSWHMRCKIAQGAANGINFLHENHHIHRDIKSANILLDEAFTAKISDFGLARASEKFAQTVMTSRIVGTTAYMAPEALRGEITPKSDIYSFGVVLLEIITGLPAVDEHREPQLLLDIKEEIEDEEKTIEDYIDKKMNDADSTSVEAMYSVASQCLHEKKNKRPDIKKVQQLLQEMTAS

SMILES	IC50 (IRAK4) [nM]	EC50 (TNFα) [nM]
CC(C)(O)[C@H](F)CNC(=O)c1cnc(-c2ccc3cc(C#N)cnn23)cc1N[C@H]1CC[C@H](c2cn(C3CC3)nn2)CC1 [Compound 20, 6-(3-cyanopyrrolo[1,2-b]pyridazin-7-yl)-4-(((1r,4R)-4-(1-cyclopropyl-1H-1,2,3-triazol-4-yl)cyclohexyl)amino)-N-((R)-2-fluoro-3-hydroxy-3-methylbutyl)nicotinamide]	1	49
CC(C)(O)[C@H](F)CNC(=O)c1cnc(-c2ccc3cc(C#N)cnn23)cc1N[C@H]1CC[C@H](n2nccc2C(F)F)CC1 [Compound 28, 6-(3-cyanopyrrolo[1,2-b]pyridazin-7-yl)-4-(((1r,4R)-4-(5-(difluoromethyl)-1H-pyrazol-1-yl)cyclohexyl)amino)-N-((R)-2-fluoro-3-hydroxy-3-methylbutyl)nicotinamide]	2	187
Cn1cc([C@H]2CC[C@H](Nc3cc(-c4ccc5cc(C#N)cnn45)ncc3C(=O)NC[C@@H](F)C(C)(C)O)CC2)nn1 [Compound 19, 6-(3-cyanopyrrolo[1,2-b]pyridazin-7-yl)-N-((R)-2-fluoro-3-hydroxy-3-methylbutyl)-4-(((1r,4R)-4-(1-methyl-1H-1,2,3-triazol-4-yl)cyclohexyl)amino)nicotinamide]	< 1	26
CC(C)(O)[C@H](F)CNC(=O)c1cnc(-c2ccc3cc(C#N)cnn23)cc1N[C@H]1CC[C@H](c2cn(C(F)F)cn2)CC1 [Compound 17, 6-(3-cyanopyrrolo[1,2-b]pyridazin-7-yl)-4-(((1r,4R)-4-(1-(difluoromethyl)-1H-imidazol-4-yl)cyclohexyl)amino)-N-((R)-2-fluoro-3-hydroxy-3-methylbutyl)nicotinamide]	1	33
CC(C)(O)[C@H](F)CNC(=O)c1cnc(-c2ccc3cc(C#N)cnn23)cc1N[C@H]1CC[C@H](n2ccnn2)CC1 [Compound 31, 4-(((1r,4R)-4-(1H-1,2,3-triazol-1-yl)cyclohexyl)amino)-6-(3-cyanopyrrolo[1,2-b]pyridazin-7-yl)-N-((R)-2-fluoro-3-hydroxy-3-methylbutyl)nicotinamide]	1	40
CC(C)(O)[C@H](F)CNC(=O)c1cnc(-c2ccc3cc(C#N)cnn23)cc1NC1CCC(F)(c2nnc(C(F)F)o2)CC1 (stereo partly drawn) [Compound 43, (R)-6-(3-cyanopyrrolo[1,2-b]pyridazin-7-yl)-4-((4-(5-(difluoromethyl)-1,3,4-oxadiazol-2-yl)-4-fluorocyclohexyl)amino)-N-(2-fluoro-3-hydroxy-3-methylbutyl)nicotinamide]	< 1	39
CC(C)(O)[C@H](F)CNC(=O)c1cnc(-c2ccc3cc(C#N)cnn23)cc1N[C@H]1CC[C@H](n2cnc(C(F)F)n2)CC1 [Compound 36, 6-(3-cyanopyrrolo[1,2-b]pyridazin-7-yl)-4-(((1r,4R)-4-(3-(difluoromethyl)-1H-1,2,4-triazol-1-yl)cyclohexyl)amino)-N-((R)-2-fluoro-3-hydroxy-3-methylbutyl)nicotinamide]	< 1	14
CC(C)(O)[C@H](F)CNC(=O)c1cnc(-c2ccc3cc(C#N)cnn23)cc1N[C@H]1CC[C@H](n2cc(C#N)cn2)CC1 [Compound 24, 4-(((1r,4R)-4-(4-cyano-1H-pyrazol-1-yl)cyclohexyl)amino)-6-(3-cyanopyrrolo[1,2-b]pyridazin-7-yl)-N-((R)-2-fluoro-3-hydroxy-3-methylbutyl)nicotinamide]	< 1	19
CC(C)(O)[C@H](F)CNC(=O)c1cnc(-c2ccc3cc(C#N)cnn23)cc1NC1CCC(c2cnn(CC(F)(F)F)c2)CC1 (stereo partly drawn) [Compound 6, (R)-6-(3-cyanopyrrolo[1,2-b]pyridazin-7-yl)-N-(2-fluoro-3-hydroxy-3-methylbutyl)-4-((4-(1-(2,2,2-trifluoroethyl)-1H-pyrazol-4-yl)cyclohexyl)amino)nicotinamide]		70

The next lines start with the values.

IC50 (IRAK4) [nM]	EC50 (TNFα) [nM]	SMILES
2	11	CC(C)(O)[C@H](F)CNC(=O)c1cnc(-c2ccc3cc(C#N)cnn23)cc1N[C@H]1CC[C@H](c2cncnc2)CC1 [Compound 57, 6-(3-cyanopyrrolo[1,2-b]pyridazin-7-yl)-N-((R)-2-fluoro-3-hydroxy-3-methylbutyl)-4-(((1r,4R)-4-(pyrimidin-5-yl)cyclohexyl)amino)nicotinamide]
9	221	CC(C)(O)[C@H](F)CNC(=O)c1cnc(-c2ccc3cc(C#N)cnn23)cc1NC1CCC(c2ccncc2)CC1 (single isomer, unassigned) [Compound 56]
2	124	CC(C)(O)[C@H](F)CNC(=O)c1cnc(-c2ccc3cc(C#N)cnn23)cc1N[C@H]1CC[C@H](c2nc(C(F)F)co2)CC1 [Compound 46, 6-(3-cyanopyrrolo[1,2-b]pyridazin-7-yl)-4-(((1r,4R)-4-(4-(difluoromethyl)oxazol-2-yl)cyclohexyl)amino)-N-((R)-2-fluoro-3-hydroxy-3-methylbutyl)nicotinamide]
< 1	19	Cc1nnc(C23CCC(Nc4cc(-c5ccc6cc(C#N)cnn56)ncc4C(=O)NC[C@@H](F)C(C)(C)O)(CC2)CO3)o1 [Compound 64, (R)-6-(3-cyanopyrrolo[1,2-b]pyridazin-7-yl)-N-(2-fluoro-3-hydroxy-3-methylbutyl)-4-((1-(5-methyl-1,3,4-oxadiazol-2-yl)-2-oxabicyclo[2.2.2]octan-4-yl)amino)nicotinamide]
1	41	CC(C)(O)[C@H](F)CNC(=O)c1cnc(-c2ccc3cc(C#N)cnn23)cc1N[C@H]1CC[C@H](C2CCOCC2)CC1 [Compound 67, 6-(3-cyanopyrrolo[1,2-b]pyridazin-7-yl)-N-((R)-2-fluoro-3-hydroxy-3-methylbutyl)-4-(((1r,4R)-4-(tetrahydro-2H-pyran-4-yl)cyclohexyl)amino)nicotinamide]
< 1	4	CC(C)(O)[C@H](F)CNC(=O)c1cnc(-c2ccc3cc(C#N)cnn23)cc1NC12CCC(c3nncs3)(CC1)CC2 [Compound 61, (R)-4-((4-(1,3,4-thiadiazol-2-yl)bicyclo[2.2.2]octan-1-yl)amino)-6-(3-cyanopyrrolo[1,2-b]pyridazin-7-yl)-N-(2-fluoro-3-hydroxy-3-methylbutyl)nicotinamide]
3.13		CC(C)(O)[C@H](F)CNC(=O)c1cnc(-c2ccc3cc(C#N)cnn23)cc1N[C@H]1CC[C@@H](c2cc[nH]n2)CC1 [Compound 71, 4-(((1s,4S)-4-(1H-pyrazol-3-yl)cyclohexyl)amino)-6-(3-cyanopyrrolo[1,2-b]pyridazin-7-yl)-N-((R)-2-fluoro-3-hydroxy-3-methylbutyl)nicotinamide]
0.875		CC(C)(O)[C@H](F)CNC(=O)c1cnc(-c2ccc3cc(C#N)cnn23)cc1N[C@H]1CC[C@H](c2cnn(C(F)F)n2)CC1 [Compound 75, 6-(3-cyanopyrrolo[1,2-b]pyridazin-7-yl)-4-(((1r,4R)-4-(2-(difluoromethyl)-2H-1,2,3-triazol-4-yl)cyclohexyl)amino)-N-((R)-2-fluoro-3-hydroxy-3-methylbutyl)nicotinamide]
0.822		CC(C)(O)[C@H](F)CNC(=O)c1cnc(-c2ccc3cc(C#N)cnn23)cc1N[C@H]1CC[C@H](c2cc[nH]n2)CC1 [Compound 70, 4-(((1r,4R)-4-(1H-pyrazol-3-yl)cyclohexyl)amino)-6-(3-cyanopyrrolo[1,2-b]pyridazin-7-yl)-N-((R)-2-fluoro-3-hydroxy-3-methylbutyl)nicotinamide]
